Where “and” joins values, the source holds several entries; their conditions need not be identical. Equal entries are not always repeated. Inconclusive results and toxic doses are left out.
System: L1210 leukemia ip in BDF1 mice, survival T/C
Experiment: NCI In Vivo Anticancer Drug Screen. Data for tumor model L1210 Leukemia (intraperitoneal) in B6D2F1 (BDF1) mice
Conditions: endpoint: mean survival time, higher = longer survival
In short: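 Mice bearing the transplanted tumor received compound or vehicle. Survival of the treated group was divided by that of the vehicle-treated control group to give the ratio.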

[1] = dose: 100.0 mg/kg/injection, schedule: Q04DX003 (ip), vehicle: Klucel (hydroxypropylcellulose) (HPC)
[2] = dose: 200.0 mg/kg/injection, schedule: Q04DX003 (ip), vehicle: Klucel (hydroxypropylcellulose) (HPC)
[3] = dose: 400.0 mg/kg/injection, schedule: Q04DX003 (ip), vehicle: Klucel (hydroxypropylcellulose) (HPC)
[4] = dose: 6.25 mg/kg/injection, schedule: Q01DX009 (ip), vehicle: Klucel (hydroxypropylcellulose) (HPC)
[5] = dose: 12.5 mg/kg/injection, schedule: Q01DX009 (ip), vehicle: Klucel (hydroxypropylcellulose) (HPC)
[6] = dose: 25.0 mg/kg/injection, schedule: Q01DX009 (ip), vehicle: Klucel (hydroxypropylcellulose) (HPC)
[7] = dose: 50.0 mg/kg/injection, schedule: Q01DX009 (ip), vehicle: Klucel (hydroxypropylcellulose) (HPC)
[8] = dose: 100.0 mg/kg/injection, schedule: Q01DX001 (ip), vehicle: saline
[9] = dose: 100.0 mg/kg/injection, schedule: Q01DX009 (ip), vehicle: Klucel (hydroxypropylcellulose) (HPC)
[10] = dose: 25.0 mg/kg/injection, schedule: Q01DX009 (ip), vehicle: saline
[11] = dose: 25.0 mg/kg/injection, schedule: Q04DX003 (ip), vehicle: saline
[12] = dose: 50.0 mg/kg/injection, schedule: Q01DX009 (ip), vehicle: saline
[13] = dose: 50.0 mg/kg/injection, schedule: Q04DX003 (ip), vehicle: saline
[14] = dose: 100.0 mg/kg/injection, schedule: Q04DX003 (ip), vehicle: saline
[15] = dose: 200.0 mg/kg/injection, schedule: Q01DX009 (ip), vehicle: Klucel (hydroxypropylcellulose) (HPC)
[16] = dose: 400.0 mg/kg/injection, schedule: Q01DX009 (ip), vehicle: Klucel (hydroxypropylcellulose) (HPC)
[17] = dose: 100.0 mg/kg/injection, schedule: Q04DX003 (ip), vehicle: saline with Tween-80
[18] = dose: 200.0 mg/kg/injection, schedule: Q04DX003 (ip), vehicle: saline with Tween-80
[19] = dose: 400.0 mg/kg/injection, schedule: Q04DX003 (ip), vehicle: saline with Tween-80

O=[N+]([O-])c1ccc(-c2ccccc2)c([As](=O)(O)O)c1
T/C (dose: 25.0 mg/kg/injection, schedule: Q04DX002 (ip), vehicle: saline with Tween-80): 106 % of control

O=C(Nc1ccccc1)N1CCC2N(C(=O)Nc3ccccc3)CCC3N(C(=O)Nc4ccccc4)CCC1N23 (stereo not drawn)
T/C [1]: 94 % of control
T/C [2]: 96 % of control
T/C [3]: 100 % of control

C[C@]12C=CC(=O)C=C1CC[C@@H]1[C@@H]2CC[C@]2(C)OC(=O)CC[C@@H]12
T/C (dose: 125.0 mg/kg/injection, schedule: Q01DX Z (sc), vehicle: steriod suspending solution): 103 % of control
T/C (dose: 250.0 mg/kg/injection, schedule: Q01DX Z (sc), vehicle: steriod suspending solution): 102 % of control
T/C (dose: 500.0 mg/kg/injection, schedule: Q01DX Z (sc), vehicle: steriod suspending solution): 101 % of control
T/C (dose: 1000.0 mg/kg/injection, schedule: Q01DX Z (sc), vehicle: steriod suspending solution): 101 % of control

CC(=O)c1c(O)c(Br)c(C)oc1=O
T/C [4]: 100 % of control
T/C [5]: 96 % of control
T/C [6]: 93 % of control
T/C [7]: 89 % of control

Cc1cc(N=Nc2c(C)ccc3ncccc23)ccc1N
T/C (dose: 3.12 mg/kg/injection, schedule: Q01DX001 (ip), vehicle: DMSO): 90 % of control
T/C (dose: 6.25 mg/kg/injection, schedule: Q01DX001 (ip), vehicle: DMSO): 98 % of control
T/C (dose: 12.5 mg/kg/injection, schedule: Q01DX001 (ip), vehicle: DMSO): 98 % of control

BrC1CC2OC2C2OC12 (stereo not drawn)
T/C (dose: 25.0 mg/kg/injection, schedule: Q04DX002 (ip), vehicle: saline): 108 % of control
T/C (dose: 50.0 mg/kg/injection, schedule: Q04DX002 (ip), vehicle: saline): 105 % of control
T/C [8]: 100 % of control
T/C (dose: 100.0 mg/kg/injection, schedule: Q04DX002 (ip), vehicle: saline): 102 % of control

CCOP(=O)(OCC)c1ccccc1Br
T/C (dose: 100.0 mg/kg/injection, schedule: Q01DX001 (ip), vehicle: acetone): 89 % of control
T/C (dose: 200.0 mg/kg/injection, schedule: Q01DX001 (ip), vehicle: acetone): 87 % of control
T/C (dose: 400.0 mg/kg/injection, schedule: Q01DX001 (ip), vehicle: acetone): 89 % of control

Cc1ccc(C)c(CN(C)C)c1O
T/C (dose: 6.0 mg/kg/injection, schedule: Q04DX003 (ip), vehicle: Klucel (hydroxypropylcellulose) (HPC)): 98 % of control
T/C (dose: 12.5 mg/kg/injection, schedule: Q04DX003 (ip), vehicle: Klucel (hydroxypropylcellulose) (HPC)): 96 % of control
T/C (dose: 25.0 mg/kg/injection, schedule: Q04DX003 (ip), vehicle: Klucel (hydroxypropylcellulose) (HPC)): 89 % of control
T/C [7]: 97 % of control
T/C (dose: 50.0 mg/kg/injection, schedule: Q04DX003 (ip), vehicle: Klucel (hydroxypropylcellulose) (HPC)): 107 % of control
T/C [9]: 89 % of control
T/C [1]: 100 % of control and 89 % of control

C=C(C)C1(CC(C)C)C(=O)NC(=S)NC1=O
T/C (dose: 9.5 mg/kg/injection, schedule: Q01DX001 (ip), vehicle: other): 100 % of control
T/C (dose: 19.0 mg/kg/injection, schedule: Q01DX001 (ip), vehicle: other): 96 % of control
T/C (dose: 38.0 mg/kg/injection, schedule: Q01DX001 (ip), vehicle: other): 96 % of control

CCN1CC(CCN2CCOCC2)C(c2ccccc2)(c2ccccc2)C1=O (stereo not drawn)
T/C (dose: 6.25 mg/kg/injection, schedule: Q01DX009 (ip), vehicle: saline): 111 % of control
T/C (dose: 12.5 mg/kg/injection, schedule: Q01DX009 (ip), vehicle: saline): 108 % of control
T/C [10]: 101 % of control
T/C [11]: 87 % of control
T/C [12]: 111 % of control
T/C [13]: 95 % of control
T/C (dose: 100.0 mg/kg/injection, schedule: Q01DX009 (ip), vehicle: saline): 101 % of control
T/C [14]: 92 % of control

CCCCCCCC(C(=O)OCC)C(=O)OCC
T/C (dose: 100.0 mg/kg/injection, schedule: Q01DX001 (ip), vehicle: carboxymethylcellulose (CMC)): 103 % of control
T/C (dose: 200.0 mg/kg/injection, schedule: Q01DX001 (ip), vehicle: carboxymethylcellulose (CMC)): 100 % of control
T/C (dose: 400.0 mg/kg/injection, schedule: Q01DX001 (ip), vehicle: carboxymethylcellulose (CMC)): 100 % of control

CCOc1ccccc1NC(=S)NC(=O)c1ccc(OC)cc1
T/C [9]: 104 % of control
T/C [1]: 109 % of control
T/C [15]: 93 % of control
T/C [2]: 102 % of control
T/C [16]: 93 % of control
T/C [3]: 100 % of control

CN(C)c1ccc(C=C(c2ccc(N)cc2)c2ccc(N)cc2)cc1
T/C [17]: 93 % of control
T/C [18]: 96 % of control
T/C [19]: 96 % of control

NC(N)=NC(N)=Nc1cc(C(F)(F)F)ccc1Cl
T/C [5]: 95 % of control
T/C [6]: 95 % of control
T/C [7]: 113 % of control

CCCCC/C(C=O)=C\c1ccccc1
T/C (dose: 100.0 mg/kg/injection, schedule: Q01DX009 (ip), vehicle: saline with Tween-80): 104 % of control
T/C [17]: 94 % of control
T/C (dose: 200.0 mg/kg/injection, schedule: Q01DX009 (ip), vehicle: saline with Tween-80): 91 % of control
T/C [18]: 96 % of control
T/C (dose: 400.0 mg/kg/injection, schedule: Q01DX009 (ip), vehicle: saline with Tween-80): 93 % of control
T/C [19]: 105 % of control

CCOC(=O)Cn1c(=O)c2ccccc2c2cc(Br)ccc21
T/C (dose: 100.0 mg/kg/injection, schedule: Q01DX001 (ip), vehicle: Klucel (hydroxypropylcellulose) (HPC)): 89 % of control
T/C (dose: 200.0 mg/kg/injection, schedule: Q01DX001 (ip), vehicle: Klucel (hydroxypropylcellulose) (HPC)): 100 % of control
T/C (dose: 400.0 mg/kg/injection, schedule: Q01DX001 (ip), vehicle: Klucel (hydroxypropylcellulose) (HPC)): 92 % of control

Cc1ccc(-c2c(O)c(Br)c(-c3ccc(C)cc3C)c(O)c2Br)c(C)c1
T/C [17]: 98 % of control
T/C [18]: 93 % of control
T/C [19]: 93 % of control

CCCCCC(CN(C)C)C(O)/C=C/c1ccccc1Cl (stereo not drawn)
T/C [10]: 102 % of control
T/C [11]: 96 % of control
T/C [12]: 94 % of control
T/C [13]: 97 % of control
T/C [14]: 95 % of control and 88 % of control

CCOC(=O)C1C2OC(=O)C(C(=O)C2CN(CCCl)CCCl)C1C1CC=C(CC2=CCC(C3C4C(=O)OC(C(CN(CCCl)CCCl)C4=O)C3C(=O)OCC)CC2)CC1 (stereo not drawn)
T/C [4]: 108 % of control
T/C [5]: 116 % of control
T/C [6]: 158 % of control
T/C (dose: 33.25 mg/kg/injection, schedule: Q04DX003 (ip), vehicle: Klucel (hydroxypropylcellulose) (HPC)): 109 % of control
T/C [7]: 114 % of control and 120 % of control
T/C (dose: 66.5 mg/kg/injection, schedule: Q04DX003 (ip), vehicle: Klucel (hydroxypropylcellulose) (HPC)): 109 % of control
T/C [1]: 114 % of control
T/C (dose: 133.0 mg/kg/injection, schedule: Q04DX003 (ip), vehicle: Klucel (hydroxypropylcellulose) (HPC)): 109 % of control
T/C [2]: 120 % of control
T/C (dose: 266.0 mg/kg/injection, schedule: Q04DX003 (ip), vehicle: Klucel (hydroxypropylcellulose) (HPC)): 117 % of control

CCN(CC)CCOC(=O)C(c1ccccc1)c1ccccc1
T/C (dose: 75.0 mg/kg/injection, schedule: Q01DX001 (ip), vehicle: saline): 104 % of control
T/C (dose: 150.0 mg/kg/injection, schedule: Q01DX001 (ip), vehicle: saline): 94 % of control

Cc1nc(C)c(I)s1
T/C [9]: 93 % of control
T/C [1]: 98 % of control
T/C [15]: 97 % of control
T/C [2]: 93 % of control
T/C [16]: 94 % of control
T/C [3]: 104 % of control

O=C(Nc1ccc(S(=O)(=O)NC2CCCCC2)cc1)OC1CCCCCC1
T/C [8]: 94 % of control
T/C (dose: 200.0 mg/kg/injection, schedule: Q01DX001 (ip), vehicle: saline): 94 % of control
T/C (dose: 400.0 mg/kg/injection, schedule: Q01DX001 (ip), vehicle: saline): 88 % of control

C=C(C)C(=O)O[C@@H]1C[C@@]2(C)O[C@@H]2C[C@H](O)/C(C)=C/[C@H]2OC(=O)C(=C)[C@@H]21
T/C (dose: 25.0 mg/kg/injection, schedule: Q01DX001 (ip), vehicle: saline): 91 % of control
T/C (dose: 50.0 mg/kg/injection, schedule: Q01DX001 (ip), vehicle: saline): 96 % of control
T/C [8]: 112 % of control

O=C(O)C1=C(C(=O)O)C2CCC1C2
T/C [17]: 100 % of control
T/C [18]: 88 % of control

From PubChem BioAssay AID248 (DTP/NCI, 2004)
